Values of other authors, collected in US7981858B1, “Methods of using zinc containing compounds to improve ocular health” (Alcon, Inc., priority 2004, dated 2011).

Assays:
[1] = 80 mg of zinc, versus placebo
[2] = about 200 mg dosage of zinc per day

For `[Zn]` [zinc], the “retarding macular degeneration changes” value [1] is listed as “significantly better than placebo”, the tolerability [2] is listed as “well tolerated” and the side effects ([2]; anemia attributable to copper deficiency) is listed as “potential side effects such as anemia”.
